According to article PMC9321043, “Synthesis, Structure–Activity Relationships, and Parasitological Profiling of Brussonol Derivatives as New Plasmodium falciparum Inhibitors” (Pharmaceuticals, 2022):
“And” between values parts separate entries of the source, which are not always exact repeats. Equal entries are not always repeated. Where two headings read alike, the source gives them in different places.

Columns and labels:
[1] = test system: P. falciparum TM90C6B strain; experiment: Resistance assessment, TM90C6B strain; format: cell-based; conditions: Plasmodium falciparum
P. falciparum 3D7 strain = experiment: Chemical rescue assay with isopentenyl pyrophosphate (IPP); format: cell-based, Plasmodium falciparum; conditions: for IC50: Plasmodium falciparum, 3D7 strain, 72 h
Text: To evaluate whether brussonol interfered with the biosynthesis of […] in malaria parasites, we conducted a chemical rescue assay. The assay identifies compounds that interfere with the metabolism of isoprenoids by “rescuing” their growth inhibition through the supplementation of isopentenyl pyrophosphate (IPP), a key precursor of isoprenoid biosynthesis. […] Thus, the chemical rescue assay compares the IC50 values of the tested compound in the presence and absence of IPP. We used fosmidomycin (FOS) as a positive control for growth inhibition rescuing upon supplementation of IPP (Figure 7b). In this assay, compounds that interfere in the metabolism of isoprenoids show a significant increment in the IC50 value in the presence of IPP (Figure 7b).
The chemical rescue assay was carried out as described by Yeh and DeRisi (2011). This assay consists in verifying the IC50 value of the tested compounds with and without the isopentenyl pyrophosphate (IPP), purchased from Isoprenoids, LC (Florida, USA). Briefly, 3D7 strain ring stages were cultured in 96-well plates, with 0.5% parasitemia and 2% hematocrit. Non-parasitized erythrocytes and parasitized erythrocytes without drugs were used as growth controls, and fosmidomycin (FOS) was used as a positive control for chemical rescue. Serial dilutions of brussonol and FOS were prepared in duplicates. In the same 96-well plate, brussonol and FOS had their antiplasmodial activity evaluated with and without supplementation of 200 µM IPP. Plates were incubated for 72 h and analyzed by the SYBR Green I assay.

[2] = test system: P. falciparum (3D7 strain); experiment: In vitro antiplasmodial activity, P. falciparum blood-stage parasites, SYBR Green I; format: cell-based, Plasmodium falciparum
Description: The P. falciparum strains were cultivated in human blood cells (hRBC) O^+, while P. knowlesi was cultivated in rhesus red blood cells (rRBC) as described. P. falciparum complete RPMI (consisting of RPMI-1640, supplemented with 0.2% NaHCO3, 25 mM HEPES (pH 7.4), 11 mM D-glucose, 10 mg/L hypoxanthine, 25 mg/L gentamicin, and 0.5% (m/v) AlbuMAX II). The parasitemias of these cultures were maintained below 10% with 2.5% hematocrit. P. knowlesi complete RPMI (consisting of RPMI-1640 supplemented with 25 mM HEPES, […] hypoxanthine, 0.26% NaHCO3, 10 mg/L gentamicin, and 1% Albumax II). This culture was maintained with RBCs up to 5% hematocrit. The culture medium was changed daily, and all cultures were maintained under a 90% N2/5% CO2/5% O2 gas mixture at 37 °C. All compounds were purchased from Sigma-Aldrich (Cotia, Brazil).
The antiplasmodial activity of brussonol and derivatives was evaluated against P. falciparum blood parasites 3D7(chloroquine-sensitive). The parasites were synchronized through sterile 5% (m/v) D-sorbitol treatment over 10 min at 37 °C for the enrichment of ring stages. Centrifugation 600× g over 5 min was used to pellet the cultures. The parasitemia was determined by microscope analysis of thin blood smears stained with Giemsa 10% (v/v) after fixation with methanol. The initial parasitemia was calculated for 1000 red blood cells (RBCs), and cultures were diluted to 0.5% parasitemia and 2% hematocrit by the addition of the appropriate volumes of blood and medium. A total of 180 µL aliquots of parasites were distributed into 96-well plates followed by the addition of 20 µL of previously prepared aliquots of ten-fold concentrated compounds, the range of concentrations tested was 10–1.53 µM. Negative and positive control wells, which correspond to non-parasitized erythrocytes and parasite cultures in the absence of compounds, were set in parallel. The DMSO concentration was maintained below 0.05% (v/v) for all compounds except for brussonol, which was 0.5%. The plates were incubated for 72 h at 37 °C in a humidified incubator with a gas mixture of 90% N2, 5% O2, and 5% CO2. Each test was performed in duplicates, and the results were compared with the control cultures. Once completed incubation, the culture medium was removed, and the cells were resuspended in 100 µL PBS (116 mM NaCl, 10 mM NaH2PO4, 3 mM KH2PO4) and lysed with 100 µL lysis buffer (20 mM Tris base, 5 mM EDTA, 0.0008% (v/v) Triton X-100, 0.008% (m/v) saponin, pH 8.0) containing 0.002% (v/v) SYBR Green I. Plates were incubated for 30 min at room temperature, and a SpectraMAX Gemini EM plate reader (Molecular Devices Corp., Sunnyvale, CA) was used to determine the fluorescence corresponding to parasitic density (excitation at 485 nm, emission at 535 nm). The half-maximal inhibitory concentration (IC50^Pf) was determined by non-linear regression analysis of the resulting concentration–response curve using the software GraphPad Prism version 8.0.1 for Windows, GraphPad Software, San Diego, California USA, www.graphpad.com, accessed on 3 March 2022”.

P. falciparum = experiment: In vitro combination with artesunate, fixed-ratio isobologram; format: cell-based, Plasmodium falciparum
Text: A drug combination investigation is important to assess whether the combination of the tested compound with a known antimalarial drug is advantageous or not. In this assay, a fixed molar ratio was used to assess the combination profile of brussonol and artesunate. The range of concentrations tested was based on the assessed IC50 values of both the compounds previously determined. In this method, we first determined the additive isobole, which defined the range of IC50 values pairs to be attributed to an additive (neutral) character of combination. Next, the combination pairs were plotted. Data points distributed below or above the additive isobole indicate a synergic or antagonistic profile, respectively.
This assay was adapted from the work done by Fivelman and collaborators (2004). Consideration of additivity ranges was included in the analysis, as described by Grabovsky and Tallarida (2004). Brussonol and artesunate were diluted and combined in a 96-well plate in […] fixed-ratio combinations (1:0, 6:1, 5:2, 4:3, 3:4, 2:5, 1:6, 0:1). Starting concentrations were 6× IC50 for both compounds. […] The absolute IC50s of brussonol and artesunate (proportions 1:0 and 0:1), the partial IC50s (IC50^brussonol and IC50^artesunate) for each combination (6:1, 5:2, 4:3, 3:4, 2:5, 1:6), and the fractional inhibitory concentrations for each combination were determined.

P. falciparum Dd2 strain = experiment: Resistance assessment, Dd2 strain; format: cell-based; conditions: Plasmodium falciparum

Compound: CC(C)c1cc2c(c(O)c1O)C[C@@]13CCCC(C)(C)[C@@H]1C[C@@H]2O3 [Compound 1, brussonol]
- IC50 [1]: 7 ± 2 µM
- reversal of growth inhibition by IPP supplementation (P. falciparum 3D7 strain; 200 µM IPP): did not reverse the growth inhibition
- IC50 (P. falciparum 3D7 strain; with 200 µM IPP, read-out: IC50 in the presence of IPP): 13.9 ± 0.2 µM
- IC50 (P. falciparum 3D7 strain; without IPP, read-out: IC50 in the absence of IPP): 18 ± 1 µM
- IC50 ([2]; 3D7 strain, 72 h, SYBR Green I, read-out: IC50^Pf): 16 ± 2 µM
- IC50 ([2]; Plasmodium falciparum, 3D7, 3D7 strain, Table 2 strain panel, read-out: IC50): 13 ± 2 µM
- IC50 ([2]; Plasmodium falciparum, 3D7, 72 h, 3D7 strain, 72 h, SYBR Green I, read-out: IC50^Pf): ~20 µM
- sum of fractional inhibitory concentrations (FICindex) (P. falciparum; brussonol combined with artesunate, proportion 1:1 respective to each IC50): ~ 1 and 1.1 ± 0.1
- combination profile with artesunate (P. falciparum; isobologram, fixed-ratio combinations): additive effect
- IC50 (P. falciparum Dd2 strain): 7 ± 2 µM
